# Test results taken from patent US8455225B2, “Yeast with increased butanol tolerance involving high osmolarity/glycerol response pathway” (Butamax Advanced Biofuels LLC, priority 2008, dated 2013).
# Tested on: PBS2 deletion strains
# Test: not given
# Settings: homozygous deletion set screens (Fuijta et al. 2006; van Voorst et al. 2006) and other literature; cited from earlier work
row,Compound,hypersensitivity of PBS2 deletion strains
1,O[C@H](CS)[C@H](O)CS (racemic) [dithiothreitol],hypersensitive
2,OCCS [2-mercaptoethanol],hypersensitive
3,[Ca+2].[Cl-].[Cl-] [CaCl2],hypersensitive
4,[Cl-].[Na+] [NaCl],hypersensitive
5,CCO [ethanol],not found to be hypersensitive
6,COC(=O)Nc1nc2ccc(C(=O)c3cccs3)cc2[nH]1 [nocodazole],hypersensitive
7,CCCCCO [pentanol],not found to be hypersensitive
8,CCCO [propanol],not found to be hypersensitive
9,O=[As][O-].[Na+] [sodium metaarsenite],hypersensitive
10,OC[C@@H](O)[C@@H](O)[C@H](O)[C@@H](O)CO [sorbitol],hypersensitive
11,tunicamycin,hypersensitive

# Tested on: translation at the initiation step
# Test: not given
# Settings: Ashe et al. 2001; cited from earlier work
row,Compound,effect on translation
1,butanol,rapid inhibition of translation at the initiation step

# Tested on: PBS2p over-producing strain
# Test: Growth yield in the presence of isobutanol, PBS2 ORF overexpressed from GAL1 promoter
# Format: cell-based, Saccharomyces cerevisiae
# Settings: 1% isobutanol, PBS2p over-producing strain vs BY4741
# Experimental: The effect of overexpression of the PBS2 coding region was assessed as follows. A Yeast ORF collection (Gelperin, White et al. (2005) Genes Dev. 19(23):2816-2826)_is available from Open Biosystems (Huntsville, Ala.). In this collection yeast ORFs are expressed from the GAL1 promoter in the vector BG1805. This vector can be introduced into ura3 yeast mutants and transformants selected for uracil prototrophy. In the presence of galactose and the absence of glucose, expression from the GAL1 promoter is elevated about 1000 fold relative to the barely detectable level observed with glucose grown cells (Johnston and Davis (1984) Mol. Cell. Biol. 4(8):1440-1448). Note that each ORF encodes a fusion protein of the form:
# A plasmid containing the PBS2 ORF was obtained from this collection (YSC3867-9523439) and transformed into yeast strain BY4741 selecting for uracil prototrophy. […] Growth yield was measured by the following method. […] Absorbance was recorded.
# Cultures were grown for 2-3 hours to allow one doubling. Absorbance was recorded at this time and was called T=0. […] OD600 was measured after incubation on a roller drum for 2 days. […] Percent growth was calculated as 100×[average A600 of the triplicate isobutanol challenged cultures/average A600 of the triplicate control cultures.
row,Compound,improvement in growth yield over the parental strain [%]
1,CC(C)CO [isobutanol],41

# Tested on: haploid cells
# Test: not given
# Settings: Lorenz et al. 2000; cited from earlier work
row,Compound,effect on growth morphology
1,CCCCO [1-butanol],stimulates filamentous growth in haploid cells
